In US8796340B2, “Pharmaceutical composition comprising propofol” (Novaliq GmbH, priority 2009, dated 2014):

Source text: In further embodiments, the propofol concentration is from about 0.01 wt.-% to about 80 wt.-%, or from about 0.1 wt-% to about 50 wt.-%, or from about 1 wt.-% to about 20 wt.-%, or from about 2 wt.-% to about 20 wt.-%, respectively. In further embodiments, the strength is about 1 wt.-% or higher, such as about 2 wt.-%, 5 wt.-%, 10 wt.-%, 20 wt.-%, or 25 wt.-%.

Q: What does the source list for `CC(C)c1cccc(C(C)C)c1O` [propofol, 2,6-di(propan-2-yl)phenol]?
A: propofol concentration possible in SFA solutions (SFA solutions): up to 960 mg/mL; miscibility with SFA's (in most SFA's including F4H5, F6H6 and F6H8): freely miscible
